In paper PMC6359800, “2-Ethoxystypandrone, a novel small-molecule STAT3 signaling inhibitor from Polygonum cuspidatum, inhibits cell growth and induces apoptosis of HCC cells and HCC Cancer stem cells” (BMC Complementary and Alternative Medicine, 2019):
Where two headings read alike, the source gives them in different places.

Legend:
[1] = tested on: IL-6/STAT3 signaling pathway; design: method as in PMID 22855270; conditions: previously reported value; read-out: IC50 against STAT3 signaling; cited from earlier work
[2] = tested on: human HCC cell lines (Huh-7, Li-7, SK-HEP-1, HepG3B, and HepG2); test: MTT cell viability assay, panel of human HCC cell lines; type: cell-based; conditions: five HCC cell lines, 72 h, read-out: IC50 range over tested HCC cells
Method: (§1) Human hepatocellular carcinoma Hep3B and HepG2 were obtained from the American Type Culture Collection. Human hepatocellular carcinoma Huh-7, Li-7 and SK-HEP-1 cells were kindly provided by Stem Cell Bank, Chinese Academy of Sciences. HepG2/STAT3 cells were cultured in α-MEM (Life Technologies, USA) with 10% FCS (Life Technologies, USA) and the rest cell lines were cultured in DMEM (Life Technologies) with 10% FCS (Life Technologies, USA).
(§2) The cell growth inhibitory activities on human hepatocellular carcinoma cells were examined by the MTT (3-(4,5-dimethylthiazol–2-yl)-2,5-diphenyl tetrazolium bromide). About 3.5 × 10^4 cells per well were seeded into 96-well plates for 24 h. HepG2/STAT3 cells were then treated with vehicle control (DMSO) or 2-ethoxystypandrone (1) at indicated concentrations (0.016, 0.08, 0.4, 2, 10, 50, 100 μM) for 6.5 h. HCC Huh-7, Li-7, SK-HEP-1, HepG3B, and HepG2 cells were treated with 2-ethoxystypandrone (1) at indicated concentrations for 72 h. The assay was carried out by adding a MTT solution (20 μL, 5 mg/mL; Sigma Chemical Co.) to each well and incubating for 3 h at 37 °C to form MTT-formazan crystals by metabolically viable cells. The supernatant was aspirated, and the MTT-formazan crystals were dissolved in DMSO (150 μL). The absorbance was measured by a microplate reader (BioTek Instruments, USA) at a wavelength of 492/620 nm.

[3] = tested on: STAT3 tyrosine phosphorylation (Tyrosine 705) in HepG2/STAT3 cells; test: Western blot, IL-6-induced STAT3 tyrosine phosphorylation; type: cell-based, human; conditions: 2 h pretreatment 2-100 μM, IL-6 15 min
Method: Expression of STAT3 and p-STAT3 proteins was analyzed by Western Blot analysis described in previous report. HepG2/STAT3 cells or HepG2 cells were grown to 70–80% confluency and then pre-treated with 2-ethoxystypandrone (1) at different concentrations (0, 2, 10, 50,100 μM) for 2 h. The cells were stimulated with IL-6 for 15 min (the phosphorylation of STAT3 appeared in the 15 min) and then lysed in Laemmli sample buffer and boiled for 5 min. Proteins were then separated by 8% SDS-PAGE and transferred to nitrocellulose membranes. Membranes were blocked in TBS containing 5% nonfat milk 0.1% and Tween 20 (TBST) for 1 h at room temperature and then incubated for 2 h in TBST containing primary antibodies and 5% bovine serum albumin. After being washed with TBST, membranes were then incubated with horseradish peroxidase-conjugated goat anti-mouse IgG (H + L) secondary antibody (#GAM007, MultiSciences) for 1 h, and finally immune complexes were detected by enhanced chemiluminescence. Primary antibodies used in Western blot were mouse anti-STAT3 (#9139,CST), mouse anti-pY-STAT3 (Tyrosine 705, #9138, CST), and mouse anti-α-tubulin (#sc5286, Santa Cruz).

HepG3B cells = test: MTT cell viability assay, HepG3B; type: cell-based; conditions: Homo sapiens, 72 h, read-out: IC50, cell growth/viability
Method: as §1, §2

HCC CSCs [4] = test: PI flow cytometry cell cycle distribution, HCC CSCs; type: cell-based, human; conditions: 10 μM, 24 h
Method: (§3) HCC cancer stem cells were isolated from HCC Huh-7 cell line by serum-free cancer stem cell culture selection. The Huh-7 cells were collected and washed to remove serum, then suspended and plated in cancer stem cell conditioned culture medium (CSC medium) supplemented with 100 IU/ML pennicillin and 100 μg/ml streptomycin. CSC medium used for sustaining cancer stemness was serum-free DMEM/F12 containing 10 ng/ml basic fibroblast growth factor (bFGF), 20 ng/ml epidermal growth factor (EGF), 4 μg/ml heparin, 100 μg/ml apotransferrin, 25 μg/ml insulin, 9.6 μg/ml putrescin, 20 nM progesterone, 30 nM sodium selenite anhydrous, and 4 mg/ml bovine serum albumin. The Huh-7 cells were subsequently cultured in ultra-low attachment 6-well plates at a density of 5000 cells/well, half volume of the flesh medium was exchanged every second day. After 10–14 days of culture, the most Huh-7 cells died and the cells grew up as nonadherent, three-dimensional sphere clusters.
For analysis the apoptosis of HCC CSCs, the suspended tumorspheres were harvested and dissociated mechanically into single cells with 0.005% trypsin-EDTA for 2 min and the dissociated cells were re-seeded with CSC medium and treated with indicated concentrations (0, 5, 8, and 10 μM) of 2-ethoxystypandrone (1) for 24 h. The cells were harvested and then treated with FITC Annexin V apoptosis detection kit I (BD Biosciences Pharmingen, USA) according to the manufacturer’s protocol respectively and the samples were immediately then analyzed by flow cytometry (BD Canto II, USA). […] After washing the cells with pre-cooled PBS twice, the cells were then treated with Propidium iodide (PI)/RNase Staining Buffer (BD Biosciences Pharmingen, USA) according to the manufacturer’s protocol respectively and the samples were immediately then analyzed by flow cytometry (BD Canto II,USA).

HCC CSCs [5] = test: Annexin V flow cytometry apoptosis, HCC CSCs; type: cell-based, human
Method: as §3, with “The Huh-7 cells were subsequently cultured in ultra-low attachment 6-well plates at a density of 5000 cells/well, half volume of the flesh medium was exchanged every second day. After 10–14 days of culture, the most Huh-7 cells died and the cells grew up as nonadherent, three-dimensional sphere clusters.” left out
For analysis the apoptosis of HCC CSCs, the suspended tumorspheres were harvested and dissociated mechanically into single cells with 0.005% trypsin-EDTA for 2 min and the dissociated cells were re-seeded with CSC medium and treated with indicated concentrations (0, 5, 8, and 10 μM) of 2-ethoxystypandrone (1) for 24 h. The cells were harvested and then treated with FITC Annexin V apoptosis detection kit I (BD Biosciences Pharmingen, USA) according to the manufacturer’s protocol respectively and the samples were immediately then analyzed by flow cytometry (BD Canto II, USA). […]

Huh-7 cells [6] = test: MTT cell viability assay, Huh-7; type: cell-based; conditions: Homo sapiens, Huh-7, 72 h, read-out: IC50, cell growth/viability
Method: as §1, §2

SK-HEP-1 cells = test: MTT cell viability assay, SK-HEP-1; type: cell-based; conditions: Homo sapiens, SK-HEP1, SK-HEP-1, 72 h, read-out: IC50, cell growth/viability
Method: as §1, §2

HepG2 cells = test: MTT cell viability assay, HepG2; type: cell-based; conditions: Homo sapiens, HepG2, 72 h, read-out: IC50, cell growth/viability
Method: as §1, §2

Li-7 cells = test: MTT cell viability assay, Li-7; type: cell-based; conditions: Homo sapiens, Li-7, 72 h, read-out: IC50, cell growth/viability
Method: as §1, §2

[7] = tested on: IL-6/STAT3 signaling pathway; test: STAT3-dependent luciferase reporter assay; type: cell-based, human; conditions: for IC50: HepG2/STAT3 luciferase cells, compound 1 h then IL-6 10 ng/mL 5.5 h
Description: HepG2/STAT3 cells, a gift of Prof. Xinyuan Fu (National University of Singapore, Singapore), were the human hepatocellular carcinoma HepG2 cells stably transfected with a STAT3-responsive firefly luciferase reporter plasmid. Briefly, three tandem repeats of the oligonucleotide […], which contains the DNA binding sequence of STAT3, was artificially synthesized and introduced into the luciferase reporter vector pGL2-P plasmid (Promega). The pGL2-P/STAT3 construct was confirmed by sequencing. The luciferase reporter plasmid pGL2-P/STAT3 was used to transfect HepG2 cells using Lipofectamine 2000 (Invitrogen). The stably transfected HepG2 cell line with the pGL2-P/STAT3 plasmid was obtained by screening for G418-resistant cell clones.
The inhibitory activities on IL-6/STAT3 signaling were determined by STAT3-dependent luciferase reporter assay described in our previously report. HepG2/STAT3 cells were HepG2 cells stably transfected with a STAT3-responsive firefly luciferase reporter plasmid. The expression level of luciferase reached its peak value after 5–6 h stimulation by interleukin (IL)-6. HepG2/STAT3 cells (2 × 10^4 per well) were seeded into 96-well cell culture microplates (Corning) and allowed to grow for 48 h and then treated with compounds 1–8 (0, 0.00001, 0.0001, 0.001, 0.01, 0.1, 1, 4, 20 μM) for 1 h followed by stimulation with 10 ng/mL interleukin (IL)-6 (BD Biosciences) for 5.5 h (cells were treated with compounds 1–8 for 6.5h). Luciferase activities were measured with the Promega luciferase kit (# E4550) according to the manufacturer’s instruction. All luciferase assay experiments were carried out at least thrice in triplicate to minimize the difference caused by cell number. The JAK2/STAT3 inhibitor pyridone 6 (Merck Chemical) was used as a positive control.

Huh-7 cells [8] = test: Annexin V/PI flow cytometry apoptosis, Huh-7; type: cell-based, human; conditions: Huh-7, 8 μM, 24 h
Method: Huh-7 cells were grown to 70–80% confluence and then treated with various concentrations (0, 2, 4, and 8 μM) of 2-ethoxystypandrone (1) for 24 h. The cells were harvested and […]. The cells were then treated with FITC Annexin V apoptosis detection kit I (BD Biosciences Pharmingen) according to the manufacturer’s protocol and the samples were immediately then analyzed by flow cytometry (BD Canto II, USA). The percentage of cells undergoing apoptosis was calculated with CELLQuest 3.0 software. The dots in the lower left quadrant, upper left quadrant, upper right quadrant, and lower right quadrant represent the viable cells, the damages cells, the cells in late apoptosis and the cells in early apoptosis, respectively.

[9] = tested on: HCC CSCs isolated from HCC Huh-7 cells; test: Tumorsphere formation assay; type: cell-based, human; conditions: 72 h
Method: as §3, with “The Huh-7 cells were subsequently cultured in ultra-low attachment 6-well plates at a density of 5000 cells/well, half volume of the flesh medium was exchanged every second day. After 10–14 days of culture, the most Huh-7 cells died and the cells grew up as nonadherent, three-dimensional sphere clusters.” left out
To propagate the tumorspheres in vitro, spheres were collected by gentle centrifugation, dissociated with 0.005% trypsin-EDTA for 2 min, then added CSC medium and mechanically dissociated with a pipette to single cells. […] The dissociated single sphere-forming cells were diluted to a density of 1000 cells/ml, Then, the 1ml/well diluted cell suspension was plated to ultra-low attachment 12 wells plate and treated with indicated concentrations (0, 0.5, 1, 2, 3, 5, 8 and 10 μM) of compound 2-ethoxystypandrone for 72 h, the tumorspheres were photographed under an inverted microscope (Leica DMi8, Germany) and the tumorspheres larger than 50 μm in diameter were counted using ImageJ 1.45.

[10] = tested on: HepG2/STAT3-luciferase cells; test: MTT cell viability assay, HepG2/STAT3-luciferase cells 6.5 h; type: cell-based, human; conditions: 0.016-100 μM
Method: as §2

## COC1=CC(=O)c2c(cc(C)c(C(C)=O)c2O)C1=O [2-methoxystypandrone, 2-methoxy-6-acetyl-7-methyl-juglone]
[1]
  IC50: 17.2 ± 0.21 µM

## CCOC1=CC(=O)c2c(cc(C)c(C(C)=O)c2O)C1=O [compound 1, 2-ethoxy-6-acetyl-7-methyl-juglone]
[2]
  IC50: 3.69 to 20.4 µM
[3]
  IL-6-induced STAT3 tyrosine phosphorylation: inhibit the IL-6-induced STAT3 tyrosine phosphorylation in a dose-dependent manner
HepG3B cells
  IC50: 16.7 ± 0.58 µM
HCC CSCs [4]
  cells in G0/G1: 37.53 ± 1.32%
  cells in G2/M phase: 18.5 ± 0.36%
  cells in S phase: 43.96 ± 1.07%
HCC CSCs [5]; 10 μM, 24 h
  percentage of apoptotic cells: 41.2 ± 4.3%
HCC CSCs [5]; 24 h (text; 10 μM per Fig. 5a)
  early apoptotic cells: 38.2 ± 4.2%
Huh-7 cells [6]
  IC50: 3.69 ± 0.51 µM
SK-HEP-1 cells
  IC50: 8.78 µM
HepG2 cells
  IC50: 20.4 ± 2.9 µM
Li-7 cells
  IC50: 5.58 ± 0.89 µM
[7]; Homo sapiens
  IC50: 7.75 ± 0.18 µM
[7]; ratio of IC50 values
  increased potency against STAT3 signaling compared with 2-methoxystypandrone: 2 fold
Huh-7 cells [8]
  total apoptosis: 88.6 ± 1.4%
[9]; 2 μM
  self-renewal and tumorsphere formation vs control: significantly blocked self-renewal and the tumorsphere formation
[9]; Homo sapiens, Huh-7, HCC CSCs, spheres larger than 50 μm counted
  IC50: 2.7 ± 0.28 µM
[10]
  cell viability: not completely dead

## O=C1COc2cc(O)cc(O)c21 [compound 3, 4,6-dihydroxybenzofuran-3-one]
[7]; Homo sapiens
  IC50: > 100 µM

## O=C(OC1C(Oc2cc(O)cc(C=Cc3ccc(O)cc3)c2)OC(CO)C(O)C1O)c1cc(O)c(O)c(O)c1 (stereo not drawn) [compound 5, polydatin-2′-O-gallate]
[7]; Homo sapiens
  IC50: > 100 µM

## OC[C@H]1O[C@@H](Oc2cc(O)cc(/C=C/c3ccc(O)cc3)c2)[C@H](O)[C@@H](O)[C@@H]1O [compound 6, polydatin]
[7]; Homo sapiens
  IC50: > 100 µM

## O=C(OC1Cc2c(O)cc(O)cc2OC1c1ccc(O)c(O)c1)c1cc(O)c(O)c(O)c1 (stereo not drawn) [compound 7, catechin-3-O-gallate]
[7]; Homo sapiens
  IC50: > 100 µM

## CC(C)(C)c1nc2c3cc[nH]c(=O)c3c3cc(F)ccc3c2[nH]1 [pyridone 6, reference compound]
[7]
  IC50: 0.02 ± 0.001 µM
